Measurements from US11305024B2, “Cross-linked polymer modified nanoparticles” (OREGON HEALTH & SCIENCE UNIVERSITY, priority 2015, dated 2022).
pIC50: −log10 of the molar value.

Legend:
BT549 = test: Screening of siRNA in combination with paclitaxel, cell viability; type: cell-based; settings: for Cell Viability (% of Scramble Control): 30 nM siRNA; for Enhanced Paclitaxel effect due to gene knockdown: over paclitaxel alone
Protocol: (§1) Cells were first treated with 30 nM siRNAs (and commercial DharmaFECT™) followed by 5 nM paclitaxel treatment 24 hours later. Cell viability was determined 3 days later. […] In short, knocking down HER2 had the greatest impact on paclitaxel toxicity in BT474 (having highest HER2 level). […] The effect of paclitaxel combined with siAKT1/BCL2 or siEPS8L1 was also significant. The best enhancement by siAKT1/BCL2 (38-41%) appeared to be with basal cells, HCC1954, BT549, and HCC70. EPS8L1 is involved in EGFR signaling and functions in cell migration.

HCC70 = test: as above; type: cell-based; settings: for Cell Viability (% of Scramble Control): 30 nM siRNA; for Enhanced Paclitaxel effect due to gene knockdown: over paclitaxel alone
Protocol: as §1

BT474 = test: as above; type: cell-based; settings: for Cell Viability (% of Scramble Control): 30 nM siRNA; for Enhanced Paclitaxel effect due to gene knockdown: over paclitaxel alone
Protocol: as §1

HCC1954 [1] = test: as above; type: cell-based; settings: for Cell Viability (% of Scramble Control): 30 nM siRNA; for Enhanced Paclitaxel effect due to gene knockdown: over paclitaxel alone
Protocol: as §1

SKBR3 = test: as above; type: cell-based; settings: for Cell Viability (% of Scramble Control): 30 nM siRNA; for Enhanced Paclitaxel effect due to gene knockdown: over paclitaxel alone
Protocol: as §1

Red blood cells = test: Hemolysis; type: cell-based, human; settings: 4 hours, 37° C.; nanoparticle 70 or 350 μg/mL (1× or 5×)
Protocol: Nanoparticles were tested at 1× and 5× of the intended human blood level. Studies of blood compatibility were performed following or with minor modification from the Nanotechnology Characterization Laboratory's (Frederick, Md.) published protocols.
Human blood was collected in the presence of EDTA, and serum was removed. Red blood cells were suspended at 1×10^9 cells per mL and exposed to nanoparticle (final concentrations of 70 or 350 μg/mL for 1× or 5×, respectively) for 4 hours and 37° C. Following centrifugation, absorbance of hemoglobin in the supernatants (at 542 nm) was measured and used to quantify percent hemolysis.

Platelet-rich plasma = test: Platelet aggregation assay; parameters: species or system human; settings: monitored for three minutes; 1× and 5×
Protocol: Platelet-rich plasma (PRP) was obtained following centrifugation of isolated blood (diluted in 3.2% sodium citrate, 1:10). The isolated blood was centrifuged at 200 g for 20 minutes. The supernatant (which contains PRP) was collected and maintained at room temperature prior to treatment. Following a 1-min incubation at 37° C. (baseline), reactions were initiated by addition of nanoparticle (70 or 350 μg/mL) or collagen related peptide (CRP; 100 μg/ml) and monitored for three minutes for optical density via an aggregometer (Chrono-log Corp).

luciferase = test: Luciferase silencing by siLUC-loaded nanoconstructs in LM2-4luc+/H2N cells; type: cell-based; settings: 13-130 nM GALA, 15 nM siRNA, NP/siRNA 50, non-cross-linked PEI, 2 days
Protocol: The LM2-4luc+/H2N cell line (over-expressing luciferase and HER2; J. M. du Manoir et al., 2006) was used for initial assessment of the nanoparticles for gene silencing efficacy when delivering siRNA against luciferase (siLUC). Cells were plated at 3000 cells/well in a 96-well plate. One day after seeding, cells were treated with siLUC-nanoparticles. The nanoparticles were loaded with siLUC at NP/siRNA ratio of 25 or 50 by mass. […] The commercially available transfection agent, DharmaFECT™ (Dharmacon, Lafayette, Colo.), with the same siLUC dose served as a positive control. Non-targeting or scrambled siRNA (siSCR) was used throughout as a negative control. After overnight incubation (−20 hours), cells were washed once to remove the nanoconstructs and replenished with a complete media. At 48 hours post-treatment, cells were lysed and analyzed for luciferase activity by the Luciferase Glow Assay Kit (Thermo Fisher Scientific, Waltham, Mass.) and protein concentration by the BCA protein assay kit (Thermo Fisher Scientific), following manufacturer's protocols. Luciferase activity of the lysate was normalized with the corresponding protein concentration in the same well and reported as a percentage of the untreated or siSCR controls. All treatments were performed with replicates.

HCC1954 [2] = settings: in vitro and/or in mice; cited from earlier work
[3] = system: basal cells, HCC1954, BT549, and HCC70; test: Screening of siRNA in combination with paclitaxel, basal cells as a group; type: cell-based
Protocol: as §1

[4] = Serum protection assay (siRNA in 50% human serum); type: in vitro ADME; settings: 37° C.
Protocol: siRNA-nanoparticles were incubated with 50 v/v % human serum in PBS for a specified period of time (0, 0.5, 1, 2, 4, 8, 24, and 48 hours) at 37° C. under continuous shaking. At the end of each time point, the sample was mixed with proteinase K (200 μg/mL) and frozen at −80° C. to stop the enzymatic reaction. For the analysis, samples were thawed and mixed with 1.0 wt. % SDS in order to release siRNA from the nanoparticles. The sample was then mixed with an equal amount of 2× loading buffer and loaded into a 15% TBE-urea gel (BioRad). The gel ran at 100 V for the first 20 minutes and 150 V for another hour. The gel was then stained with SyBR Gold (Life Technologies) following the manufacturer's protocol and viewed in a UV chamber. The band intensity was analyzed by ImageJ software (National Institutes of Health, Bethesda, Md.). The fraction of intact siRNA was reported as a function of time that the siRNA-nanoparticles were in 50% serum.

HER2+ cell lines = test: Growth inhibition by siHER2 in a panel of HER2+ cell lines; type: cell-based; settings: 19 out of 20 HER2+ cell lines; read-out: dose of the siHER2 required to inhibit cell growth by 50% (G150)
[5] = metastatic solid tumor patients; cited from earlier work
[6] = BT549, then 5 nM paclitaxel 24 hours later (paclitaxel +)
[7] = HCC70, then 5 nM paclitaxel 24 hours later (paclitaxel +)
[8] = BT474, then 5 nM paclitaxel 24 hours later (paclitaxel +)
[9] = HCC1954, then 5 nM paclitaxel 24 hours later (paclitaxel +)
[10] = SKBR3, then 5 nM paclitaxel 24 hours later (paclitaxel +)
[11] = BT549 (triple negative, basal), DharmaFECT, paclitaxel −
[12] = HCC70 (triple negative, basal), DharmaFECT, paclitaxel −
[13] = BT474 (HER2 positive, luminal), DharmaFECT, paclitaxel −
[14] = HCC1954 (HER2 positive, basal), DharmaFECT, paclitaxel −
[15] = SKBR3 (HER2 positive, luminal), DharmaFECT, paclitaxel −

siSCR: non-targeting or scrambled siRNA control, SEQ ID NO. 5 and 6 (chain 1 UGGUUUACAUGUCGACUAA; chain 2 UUAGUCGACAUGUAAACCA; listed as RNA, chemistry not given here) [reference compound]
Cell Viability (% of Scramble Control) (BT549; [6]): 59%
Cell Viability (% of Scramble Control) (HCC70; [7]): 70%
Cell Viability (% of Scramble Control) (BT474; [8]): 58%
Cell Viability (% of Scramble Control) (HCC1954 [1]; [9]): 55%
Cell Viability (% of Scramble Control) (SKBR3; [10]): 39%

Triton-X
hemolysis of red blood cells (Red blood cells): complete blood lysis

collagen related peptide
platelet aggregation (Platelet-rich plasma): triggered aggregation immediately

GALA
effect of co-loaded peptide on silencing efficacy (luciferase): clearly enhanced silencing efficacy of the nanoconstructs

pertuzumab
resistance of HCC1954 (HCC1954 [2]): resistant

N.N.[Cl][Pt][Cl] [cisplatin]
resistance of HCC1954 (HCC1954 [2]): resistant

siAKT1/BCL2: dual-targeting siRNA duplex, one strand targets AKT1, the other BCL2, SEQ ID NO. 7 and 8 (chain 1 AUUCAGUUUCACAUUGCUUGGUGAC; chain 2 GUCACCAAGAACUGUGACACAGAAGGG; listed as RNA, chemistry not given here)
best enhancement of paclitaxel effect [3]: 38-41%
Cell Viability (% of Scramble Control) (BT549; [11]): 54%
Cell Viability (% of Scramble Control) (BT549; [6]): 23%
Enhanced Paclitaxel effect due to gene knockdown (BT549; BT549): 36%
Cell Viability (% of Scramble Control) (HCC70; [12]): 42%
Cell Viability (% of Scramble Control) (HCC70; [7]): 29%
Enhanced Paclitaxel effect due to gene knockdown (HCC70; HCC70): 41%
Cell Viability (% of Scramble Control) (BT474; [13]): 74%
Cell Viability (% of Scramble Control) (BT474; [8]): 39%
Enhanced Paclitaxel effect due to gene knockdown (BT474; BT474): 19%
Cell Viability (% of Scramble Control) (HCC1954 [1]; [14]): 47%
Cell Viability (% of Scramble Control) (HCC1954 [1]; [9]): 17%
Enhanced Paclitaxel effect due to gene knockdown (HCC1954 [1]; HCC1954): 38%
Cell Viability (% of Scramble Control) (SKBR3; [15]): 77%
Cell Viability (% of Scramble Control) (SKBR3; [10]): 29%
Enhanced Paclitaxel effect due to gene knockdown (SKBR3; SKBR3): 10%

siHER2: siRNA against HER2, SEQ ID NO. 1 and 2 (chain 1 CACGUUUGAGUCCAUGCCCAAUU; chain 2 UUGGGCAUGGACUCAAACGUGUU; listed as RNA, chemistry not given here)
half-life [4]: about 1 hour
time within which siHER2 was degraded ([4]; without nanoparticles): ≤ 0.5 h
pIC50 (HER2+ cell lines): > 8.30
Cell Viability (% of Scramble Control) (BT549; [11]): 51%
Cell Viability (% of Scramble Control) (BT549; [6]): 40%
Enhanced Paclitaxel effect due to gene knockdown (BT549; BT549): 19%
Cell Viability (% of Scramble Control) (HCC70; [12]): 76%
Cell Viability (% of Scramble Control) (HCC70; [7]): 49%
Enhanced Paclitaxel effect due to gene knockdown (HCC70; HCC70): 21%
Cell Viability (% of Scramble Control) (BT474; [13]): 35%
Cell Viability (% of Scramble Control) (BT474; [8]): 26%
Enhanced Paclitaxel effect due to gene knockdown (BT474; BT474): 32%
Cell Viability (% of Scramble Control) (HCC1954 [1]; [14]): 68%
Cell Viability (% of Scramble Control) (HCC1954 [1]; [9]): 49%
Enhanced Paclitaxel effect due to gene knockdown (HCC1954 [1]; HCC1954): 6%
Cell Viability (% of Scramble Control) (SKBR3; [15]): 51%
Cell Viability (% of Scramble Control) (SKBR3; [10]): 33%
Enhanced Paclitaxel effect due to gene knockdown (SKBR3; SKBR3): 6%

[SH-].[SH-].[S]=[Mo]=[S] [tetrathiomolybdate]
treated patients with mild copper deficiency who achieved stable disease [5]: five out of six
